Measured values: patent publication US6831199B1, “Pyrimidine compounds and derivatives thereof” (G. D. Searle & Co., priority 1995, dated 2004)
Structures can show the parent of a compound that is named as a salt. Where two headings read alike, the source gives them in different places.

Columns and labels:
[1] = target: T1, Human vitronectin receptor (αvβ3) (Homo sapiens, UniProt P05106+P06756); experiment: Vitronectin adhesion assay (solid phase receptor assay, competition with biotinylated vitronectin); type: binding
T1 construct: Human vitronectin receptor (αvβ3) was purified from human placenta; from tissue; host or cells: human placenta
Outline: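 Purified human αvβ3 coated overnight at 4 °C in TBS with 1.0 mM Ca++, Mg++, Mn++, pH 7.4; compounds (top final 1.0×10^−4 M) competed with 1 nM biotinylated vitronectin for 2 h at room temperature. Bound ligand detected by HRP anti-biotin/OPD at A450; values normalized to no-competitor controls, four-parameter curve fit.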

[2] = target: T2, Human fibrinogen receptor (αIIbβ3) (Homo sapiens, UniProt P05106+P08514); experiment: Purified IIb/IIIa receptor assay (solid phase receptor assay, competition with biotinylated vitronectin); type: binding
T2 construct: Human fibrinogen receptor (αIIbβ3) was purified from outdated platelets; from tissue; host or cells: outdated human platelets
Outline: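 Competition format: 1 nM biotinylated vitronectin plus test compound (highest 1.0×10^−4 M), 2 h at room temperature on wells coated with platelet-derived αIIbβ3. Buffer was TBS containing 1.0 mM Ca, Mg, Mn, pH 7.4. HRP anti-biotin readout at 450 nm; normalized to maximum binding, four-parameter curve fit.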

[3] = test system: platelet rich plasma; experiment: Human platelet rich plasma assay (ADP induced platelet aggregation); type: cell-based; conditions: read-out: Human PRP
Outline: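 Citrated platelet-rich plasma from aspirin-free healthy human donors was stirred at 37 °C and preincubated with compound for 1 min. Aggregation was then triggered with ADP (added as a 200 uM solution) and recorded photometrically for 3 min. Dose–response curves were built from % inhibition of the maximal saline-control response.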

[4] = test system: M21 human melanoma cells; experiment: M21 melanoma cell adhesion assay (αvβ3-dependent adhesion to human fibrinogen-coated plates); type: cell-based
Description: M21 MELANOMA CELL ADHESION ASSASY
This assay involves an αvβ3-dependent adhesion of M21 human melanoma cells to human fibrinogen-coated plastic tissue culture dishes.
Fibrinogen was purified from human plasma. Fibronectin and plasminogen were eliminated from the preparation by passing the sample over gelatin-sepharose 4B and lysine-sepharose 4B resins, respectively. The fibrinogen is diluted to 10 μg/mL in coating buffer ([…] Tris-HCl, 150 mM NaCl, pH 7.4). 100 μL of diluted fibrinogen is added to each well of a 96-well Immulon 2 microtiter plate (Dynatech; Chantilly, Va.) and allowed to coat overnight at 4° C. Plates are blocked with 1% BSA (Miles/Pentex; Kankakee, Ill.) in adhesion buffer (Hank's balanced salt solution without Ca^++ or Mg^++ [HBSS−−], 50 mM Hepes, 1 mg/mL BSA, pH 7.4) for 1 hour at 37° C.
M21 human melanoma cells were provided by Dr. J. Smith, La Jolla Cancer Research Institute. M21 cells are harvested from tissue culture flasks by washing with HBSS−− and adding cell dissociation solution (Sigma) and incubating for 5 minutes at 37° C. Harvested cells are washed 3 times with adhesion assay buffer containing 200 μM Mn^++. Cells are counted and suspended to a density of 2×10^6/mL in adhesion assay buffer containing 200 μM Mn^++. M21 cells are pre-incubated with antagonists of αvβ3 for 30 minutes at room temperature. Following the pre-incubation, the solutions containing a mixture of cells and antagonists are added to each well of the microtiter plate and allowed to bind for 30 minutes at 37° C.
Following adhesion, plates are gently washed 3 times with 200 μL of wash buffer (50 mM Tris-HCl, 150 mM NaCl, pH 7.4) using large bore pipet tips. Plates are briefly blotted dry and 100 μL of cell lysis buffer (50 mM sodium acetate, pH 5.0, 0.5% Triton X-100, 0.3 mg/mL p-nitrophenyl phosphate [Sigma] is added to each well. Plates are incubated for 60 minutes at 37° C. and 50 μL of 1N NaOH is added to stop the reaction. The absorbance of the wells at […] is read using an automatic plate reader.

[5] = ADP induced platelet aggregation in human platelet rich plasma
[6] = trifluoroacetate salt; read-out: M21 Melanoma Cells IC50
[7] = Homo sapiens, M21, read-out: M21 Melanoma Cells IC50
[8] = Homo sapiens, M21; read-out: M21 Melanoma Cells IC50
[9] = Homo sapiens, Platelet, ADP induced platelet aggregation in human platelet rich plasma

Structure (SMILES)	IC50 ([1]; read-out: AvB3 IC50) [µM]	IC50 ([2]; read-out: IIb/IIIa IC50) [µM]	IC50 [3, 9] [µM]	also measured
NC(=O)Nc1cccc(C(=O)NCC(=O)NC(CC(=O)O)c2cccnc2)c1 (stereo not drawn) [Example 110, β-[[2-[[[3-(aminocarbonylamino)phenyl]carbonyl]amino]acetyl]amino]pyridine-3-propanoic acid, trifluoroacetate salt]	0.0045	1.86		IC50 [3, 5]: > 200 µM; IC50 [4, 6]: 0.177 µM
N=C(N)Nc1cccc(C(=O)NCC(=O)NC(CC(=O)O)c2cccnc2)c1 (racemic) [Example 2, (±)β-[[2-[[[3-[(aminoiminomethyl)amino]phenyl]carbonyl]amino]acetyl]amino]pyridine-3-propanoic acid, bis(trifluoroacetate)salt]	0.00054	0.0512		IC50 ([3]; Homo sapiens, Platelet): 200 µM; IC50 [4, 7]: 0.00025 µM
C#C[C@H](CC(=O)O)NC(=O)CNC(=O)c1cccc(NC(=N)N)c1 [Example 69, 3S-[[2-[[[3-[(aminoiminomethyl)amino]phenyl]carbonyl]amino]acetyl]amino]-4-pentynoic acid, trifluoroacetate salt]	0.00092	0.0336		IC50 ([3]; ADP induced platelet aggregation in human platelet rich plasma, trifluoroacetate salt): > 200 µM; IC50 [4, 6]: 0.00095 µM
N=C(N)Nc1cccc(C(=O)NCC(=O)NCCC(=O)O)c1 [Example 97, N-[2-[[[3-[(aminoiminomethyl)amino]phenyl]carbonyl]amino]acetyl]-β-alanine]	0.0269	1.17		IC50 [4, 8]: 0.163 µM
C#C[C@@H](CC(=O)O)NC(=O)CNC(=O)c1cccc(NC(=N)N)c1 [Example 70, 3R-[[2-[[[3-[(aminoiminomethyl)amino]phenyl]carbonyl]amino]acetyl]amino]-4-pentynoic acid, trifluoroacetate salt]	0.063	3.24		IC50 [3, 5]: > 200 µM; IC50 [4, 6]: 0.924 µM
CCOC(=O)CC(NC(=O)CNC(=O)c1cccc(NC(=N)N)c1)c1ccccc1 (racemic) [Example 3, (±)ethyl β-[[2-[[[3-[(aminoiminomethyl)amino]phenyl]carbonyl]amino]acetyl]amino]benzenepropanoate, trifluoroacetate salt]	0.498	72.9		IC50 [4, 8]: 3.05 µM
O=C(O)CC(NC(=O)CNC(=O)c1cccc(NC(=O)NCc2ccccc2)c1)c1cccnc1 (racemic) [Example 106, (±)β-[[2-[[[3-[[[(phenylmethyl)amino]carbonyl]aminophenyl]carbonyl]amino]acetyl]-amino]pyridine-3-propanoic acid]	0.00079	3.14		IC50 ([4]; read-out: M21 Melanoma Cells IC50): 0.00081 µM
N=C(N)Nc1cccc(C(=O)NCC(=O)N[C@H](CSc2ccccc2C(=O)O)CC(=O)O)c1 [Example 72, 2-[[2S-[[2-[[[3-[(aminoiminomethyl)amino]phenyl]carbonyl]amino]acetyl]amino]-2-(carboxymethyl)ethyl]thio]benzoic acid, trifluoroacetate salt]	0.00121	0.152	> 200	
N=C(N)Nc1cccc(C(=O)NCC(=O)N[C@H](COC(=O)c2ccccc2N)CC(=O)O)c1 [Example 94, 2S-[[2-[[[3-[[aminoiminomethyl]amino]phenyl]carbonyl]amino]acetyl]amino]-3-carboxypropyl 2-aminobenzoate, bis(trifluoroacetate)salt, monohydrate]				IC50 ([1]; AvB3 IC50): 0.00116 µM; IC50 ([2]; IIb/IIIa IC50): 0.101 µM; IC50 ([3]; Homo sapiens, Platelet): > 200 µM; IC50 [4, 7]: 0.001 µM
N=C(N)Nc1cccc(C(=O)NCC(=O)NC(CC(=O)O)c2cc(Cl)cc(Cl)c2O)c1 (racemic) [Example 225, (±)β-[[2-[[[3-[(aminoiminomethyl)amino]phenyl]carbonyl]amino]acetyl]amino]-3,5-dichloro-2-hydroxybenzenepropanoic acid, trifluoroacetate salt, monohydrate]	0.00276	0.471	> 20	
O=C(O)CC(NC(=O)CNC(=O)c1ccc(Cl)c(NC2=NCCCCC2)c1)c1cccnc1 (racemic) [Example 21, (±)β-[[2-[[[4-chloro-3-[(3,4,5,6-tetrahydro-2H-azepin-7-yl)amino]phenyl]carbonyl]amino]acetyl]amino]pyridine-3-propanoic acid, bis TFA Salt]	0.00244	1.91	> 200	
O=C(O)CC(NC(=O)CNC(=O)c1cccc(NC2=NCCCN2)c1)c1cc(Cl)cc(Cl)c1 (racemic) [Example 200, (±)3,5-dichloro-β-[[2-[[[3-[(1,4,5,6-tetrahydropyrimidin-2-yl)amino]phenyl]carbonyl]amino]acetyl]amino]benzenepropanoic acid, trifluoroacetate salt]	0.00048	1.1	> 200	
NS(=O)(=O)c1ccc(CNC(=O)Nc2cccc(C(=O)NCC(=O)NC(CC(=O)O)c3cccnc3)c2)cc1 (stereo not drawn) [Example 126, β-[[2-[[[3-[[[[(4-(aminosulfonyl)phenylmethyl]amino]carbonyl]amino]phenyl]carbonyl]amino]acetyl]amino]pyridine-3-propanoic acid, trifluoroacetate salt]	0.00248	2.01	> 200	
O=C(O)CC(NC(=O)CNC(=O)c1cccc(NC(=O)NCc2ccccc2)c1)c1ccccc1 (stereo not drawn) [Example 119, β-[[2-[[[3-[[[(phenylmethyl)amino]carbonyl]amino]phenyl]carbonyl]amino]acetyl]amino]benzenepropanoic acid]	0.00361	11.1		IC50 ([3]; Homo sapiens, Platelet): > 20 µM; IC50 [4, 7]: 0.0904 µM
